# Active and inactive are the calls of the source.
# Assays:
# [1] = SNU-C1 cell viability reduction, dose response, CellTiter-Glo luminescence (AID 1117323); format: functional, cell-based
# [2] = HCT116 cell viability decrease, GSK3B pretreatment – CellTiter-Glo, IC50, dose response (AID 1117339); format: functional; conditions: HCT-116
# [3] = cytotoxicity toward Colo320 cells – cell-based, CellTiter-Glo luminescence, IC50, dose response (AID 1117334); format: functional; conditions: COLO 320
# [4] = cytotoxicity toward HT-29 cells – cell-based, CellTiter-Glo luminescence, IC50, dose response (AID 1117330); format: functional
# [5] = cytotoxicity toward HCT116 cells – cell-based, CellTiter-Glo luminescence, IC50, dose response (AID 1117332); format: functional; conditions: HCT-116
# [6] = CellTiter-Glo luminescent dose response of DLD-1 viability loss (AID 1117352); format: functional
# [7] = Concentration-dependent survival of SW480 colon cancer line, luminescence detection with CellTiter-Glo, half-maximal inhibitory concentration (AID 1117338); format: functional
# [8] = RKO cell viability reduction, dose response, CellTiter-Glo luminescence (AID 1117322); format: functional
# [9] = molecular target: Voltage-gated inwardly rectifying potassium channel KCNH2 (Homo sapiens, UniProt Q12809); assay: hERG protection from proarrhythmic block, potency, dose response, cell-based, thallium flux (AID 2121); format: ADME
# Chain of Voltage-gated inwardly rectifying potassium channel KCNH2 (Q12809 whole entry): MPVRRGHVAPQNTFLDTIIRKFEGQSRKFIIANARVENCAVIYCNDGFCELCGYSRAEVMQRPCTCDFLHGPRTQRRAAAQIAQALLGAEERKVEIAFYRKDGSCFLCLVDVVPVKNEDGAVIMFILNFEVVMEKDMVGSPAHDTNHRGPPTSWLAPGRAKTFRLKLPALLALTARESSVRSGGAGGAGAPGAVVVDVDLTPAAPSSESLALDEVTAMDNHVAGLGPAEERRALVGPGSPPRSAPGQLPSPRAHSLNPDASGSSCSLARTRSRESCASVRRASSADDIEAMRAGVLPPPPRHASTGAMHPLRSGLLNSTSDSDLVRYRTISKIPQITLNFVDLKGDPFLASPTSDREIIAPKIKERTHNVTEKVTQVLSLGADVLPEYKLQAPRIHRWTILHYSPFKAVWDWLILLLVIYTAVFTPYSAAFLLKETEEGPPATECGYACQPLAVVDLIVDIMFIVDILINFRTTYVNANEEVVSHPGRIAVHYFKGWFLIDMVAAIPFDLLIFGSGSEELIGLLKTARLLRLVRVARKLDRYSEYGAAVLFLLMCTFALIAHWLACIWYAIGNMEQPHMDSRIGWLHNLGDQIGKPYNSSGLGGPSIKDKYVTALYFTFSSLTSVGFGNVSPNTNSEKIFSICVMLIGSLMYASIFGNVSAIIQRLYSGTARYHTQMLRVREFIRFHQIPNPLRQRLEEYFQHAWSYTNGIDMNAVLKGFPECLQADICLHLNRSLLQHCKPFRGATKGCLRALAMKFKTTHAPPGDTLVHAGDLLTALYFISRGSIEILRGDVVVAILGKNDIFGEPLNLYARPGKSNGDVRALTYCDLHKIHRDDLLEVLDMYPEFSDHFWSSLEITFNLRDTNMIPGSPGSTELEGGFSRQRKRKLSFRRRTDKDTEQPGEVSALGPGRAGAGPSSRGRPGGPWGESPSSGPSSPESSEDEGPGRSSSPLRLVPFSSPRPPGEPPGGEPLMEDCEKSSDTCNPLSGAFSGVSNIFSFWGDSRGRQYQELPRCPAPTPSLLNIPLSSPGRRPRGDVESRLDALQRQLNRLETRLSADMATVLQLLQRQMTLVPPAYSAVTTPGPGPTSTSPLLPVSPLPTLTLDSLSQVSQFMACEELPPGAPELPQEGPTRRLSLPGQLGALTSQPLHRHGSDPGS
# [10] = P. falciparum Dd2 growth inhibitors, dose response, SYBR Green, cherry-picked samples (AID 1159567); format: functional, cell-based
# [11] = HepG2 cell cytotoxicity, dose response, cytotoxicity control, cherry-picked samples (AID 1159577); format: functional, cell-based
# [12] = molecular target: T1, Eukaryotic translation initiation factor 2-alpha kinase 3 (Homo sapiens, UniProt Q9NZJ5); assay: Counterscreen assay for PERK inhibitors: Dose response cell-based high throughput screening assay to measure inhibition of PERK at 6 hours. [Related pubchem assays: 1522, 1416 ]; format: functional
# T1 sequence (Q9NZJ5 whole entry): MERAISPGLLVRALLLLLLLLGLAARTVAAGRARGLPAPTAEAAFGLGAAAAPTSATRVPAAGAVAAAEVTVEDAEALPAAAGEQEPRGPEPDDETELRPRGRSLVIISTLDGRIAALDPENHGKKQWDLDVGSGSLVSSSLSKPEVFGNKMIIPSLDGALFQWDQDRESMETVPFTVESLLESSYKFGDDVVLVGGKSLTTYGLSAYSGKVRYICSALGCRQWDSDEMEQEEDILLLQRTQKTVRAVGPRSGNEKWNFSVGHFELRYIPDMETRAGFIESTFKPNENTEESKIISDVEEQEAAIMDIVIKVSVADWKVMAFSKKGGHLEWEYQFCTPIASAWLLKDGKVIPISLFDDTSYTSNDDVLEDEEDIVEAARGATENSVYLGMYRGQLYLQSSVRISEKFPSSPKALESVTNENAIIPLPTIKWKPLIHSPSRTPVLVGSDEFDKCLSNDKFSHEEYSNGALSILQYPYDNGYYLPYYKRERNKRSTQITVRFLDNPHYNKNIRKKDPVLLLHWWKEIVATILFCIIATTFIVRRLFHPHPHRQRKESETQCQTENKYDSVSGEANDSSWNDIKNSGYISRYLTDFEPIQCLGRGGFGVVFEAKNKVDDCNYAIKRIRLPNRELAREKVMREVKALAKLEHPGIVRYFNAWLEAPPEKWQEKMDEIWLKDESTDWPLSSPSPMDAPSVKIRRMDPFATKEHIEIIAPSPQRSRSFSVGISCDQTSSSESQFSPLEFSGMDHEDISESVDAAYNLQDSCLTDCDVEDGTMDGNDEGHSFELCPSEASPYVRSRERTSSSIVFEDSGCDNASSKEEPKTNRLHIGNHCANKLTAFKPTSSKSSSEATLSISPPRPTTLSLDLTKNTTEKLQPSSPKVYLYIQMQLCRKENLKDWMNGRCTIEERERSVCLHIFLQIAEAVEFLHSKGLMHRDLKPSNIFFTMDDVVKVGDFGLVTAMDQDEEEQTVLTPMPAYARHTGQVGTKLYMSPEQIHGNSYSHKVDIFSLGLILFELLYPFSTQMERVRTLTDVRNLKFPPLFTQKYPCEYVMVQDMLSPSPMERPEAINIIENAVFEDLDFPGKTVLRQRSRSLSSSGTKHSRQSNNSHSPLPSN
# cells = format: functional
# P388/ADR = assay: cells; format: functional; conditions: Mus musculus
# [13] = cytotoxicity in HEK-293T NF-kB-Luc cells, dose response, cytotoxicity control for B/T-cell NF-kB inhibitor project, cell-based, uHTS hits (AID 489019); format: functional;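 also: IC50 reflects cytotoxicity as loss of cell viability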
# P388 = assay: cells; format: functional; conditions: Mus musculus
# [14] = inhibitors of PGC1a acetylation in cells, dose response, cell-based, cherry-picked samples (AID 720514); format: functional;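 also: potency may reflect raised or lowered acetylation signal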
# Jurkat = assay: antigen receptor-induced NF-kB inhibitors, dose response, Jurkat, luciferase reporter, luminescence, B- and T-cell (AID 489004); format: functional, cell-based; conditions: Homo sapiens;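 also: NF-kB luciferase reporter Jurkat cells stimulated with PMA plus ionomycin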
# SN12K1 = assay: cells; format: functional; conditions: Homo sapiens
# [15] = microbe, parasite or virus in culture; format: functional; conditions: Mycobacterium tuberculosis
# [16] = Vero E6 cell cytotoxicity, dose response, cytotoxicity control for non-replicating M. tuberculosis project, secondary assay (AID 492998); format: functional, VeroE6; conditions: Vero C1008
# [17] = THP-1 cell cytotoxicity, dose response, cytotoxicity control for non-replicating M. tuberculosis project (AID 489025); format: functional
# [18] = HepG2 cell cytotoxicity, dose response, cytotoxicity control for non-replicating M. tuberculosis project (AID 489018); format: functional; conditions: Mycobacterium tuberculosis
# [19] = molecular target: T1, Eukaryotic translation initiation factor 2-alpha kinase 3; assay: Dose response cell-based high-throughput screening assay to measure PERK inhibition. [Related pubchem assays: 1416 ]; format: functional
# [20] = molecular target: E3 ubiquitin-protein ligase UHRF1 (Homo sapiens, UniProt Q96T88); assay: Counterscreen for inhibitors of 5-meCpG-binding domain protein 2 (MBD2): TRFRET-based biochemical high throughput dose response assay to identify inhibitors of binding of ubiquitin-like with PHD and ring finger domains 1 (UHRF1) to methylated oligonucleotide.
# Chain of E3 ubiquitin-protein ligase UHRF1 (Q96T88 whole entry, the tested form may be a part): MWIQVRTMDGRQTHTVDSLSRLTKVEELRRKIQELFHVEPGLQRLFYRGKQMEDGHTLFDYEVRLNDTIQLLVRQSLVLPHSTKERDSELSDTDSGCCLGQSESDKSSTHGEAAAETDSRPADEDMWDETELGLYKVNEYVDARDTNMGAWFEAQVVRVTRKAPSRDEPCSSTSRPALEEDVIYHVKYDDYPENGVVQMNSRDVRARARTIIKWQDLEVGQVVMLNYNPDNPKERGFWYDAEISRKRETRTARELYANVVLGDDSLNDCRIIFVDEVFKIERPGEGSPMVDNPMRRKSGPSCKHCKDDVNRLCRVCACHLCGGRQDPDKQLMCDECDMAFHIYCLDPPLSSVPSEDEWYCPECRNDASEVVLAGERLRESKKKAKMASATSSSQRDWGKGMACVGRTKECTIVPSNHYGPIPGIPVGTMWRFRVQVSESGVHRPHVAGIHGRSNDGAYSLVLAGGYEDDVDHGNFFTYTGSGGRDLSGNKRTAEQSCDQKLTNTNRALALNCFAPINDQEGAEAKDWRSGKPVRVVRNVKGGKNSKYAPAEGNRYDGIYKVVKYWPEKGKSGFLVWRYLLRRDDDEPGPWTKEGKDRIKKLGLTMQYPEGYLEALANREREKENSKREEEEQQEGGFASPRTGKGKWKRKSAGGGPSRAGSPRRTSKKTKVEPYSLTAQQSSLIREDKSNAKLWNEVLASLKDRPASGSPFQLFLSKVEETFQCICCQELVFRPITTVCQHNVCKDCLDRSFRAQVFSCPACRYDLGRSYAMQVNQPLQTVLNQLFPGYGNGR
# Transthyretin = Transthyretin (Homo sapiens, UniProt P02766); assay: Luminescence-based cell-based high throughput dose response assay to identify activators of Transthyretin (TTR) transcription.; format: functional
# [21] = inhibitors of firefly luciferase expression or activity, dose response, H4 neuroglioma cells, luminescence (AID 1990); format: functional, cell-based
# [22] = cytotoxicity in OV-90 ovarian cancer cells, dose response, PAX8 inhibitor project, cell-based, plate reader, dry powder, SA8 (AID 743149); format: functional
# [23] = cytotoxicity dependent on PAX8, dose response, cell-based, plate reader, dry powder (AID 743049); format: functional
# BJ [24] = assay: cytotoxicity toward BJ-TERT fibroblasts, dose response, cell-based, RAS-independent, luminescence (AID 1933); format: functional; conditions: Homo sapiens
# [25] = Luminescence-based dose response cell-based high throughput screening assay for cytotoxic compounds using the IEC-6 intestinal epithelial cell line. [Related pubchem assays: 1858 (Summary AID.), 1825 (Counterscreen.), 1907 (Confirmation screen.)]; format: functional
# BJ [26] = assay: cells; format: functional, cell-based; conditions: Homo sapiens
# [27] = NIH:OVCAR-3 ovarian cancer cell cytotoxicity, dose response, PAX8 inhibitor project, plate reader, dry powder samples (AID 743044); format: functional, cell-based
# [28] = PAX5 activity inhibitors, dose response, selectivity assay for PAX8 inhibitor project, cell-based, plate reader, dry powder samples (AID 743047); format: functional;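 also: HEK293 cells carrying a Pax5 driven CD19 promoter luciferase reporter; potency of inhibitors that lower reporter luminescence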
# [29] = IOSE-T80 ovarian epithelial cell cytotoxicity, dose response, cytotoxicity control for PAX8 inhibitor project, plate reader, dry powder samples (AID 743045); format: functional, cell-based
# [30] = IGROV1 ovarian cancer cell cytotoxicity, dose response, PAX8 inhibitor project, plate reader, dry powder samples (AID 743043); format: functional, cell-based; conditions: IGROV-1
# [31] = cytotoxicity in COV362 ovarian cancer cells, dose response, cytotoxicity control for PAX8 inhibitor project, cell-based, plate reader, dry powder, SA12 (AID 743144); format: functional
# [32] = cytotoxicity in OVCAR4 cells, dose response, cytotoxicity control for PAX8 inhibitor project, cell-based, plate reader, dry powder, SA11 (AID 743150); format: functional; conditions: OVCAR-4
# [33] = inhibitors of SNCA 5'UTR-driven reporter translation, confirmation, H4 neuroglioma cells, luminescence (AID 1988); format: functional, cell-based
# [34] = A2780 ovarian cancer cell cytotoxicity, dose response, cytotoxicity control, plate reader, dry powder samples (AID 743046); format: functional, cell-based
# BJ [35] = assay: cytotoxicity toward BJ-TERT-LT-ST fibroblasts, dose response, cell-based, RAS-independent, luminescence (AID 1935); format: functional; conditions: Homo sapiens;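 also: BJ fibroblasts immortalized with TERT plus LT and ST oncogenes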
# [36] = cytotoxicity toward DRD oncogenic fibroblasts, dose response, cell-based, non-viral oncogenic, luminescence (AID 1934); format: functional; conditions: Homo sapiens
# BJ [37] = assay: cytotoxicity toward Ras-transformed BJeLR fibroblasts, dose response, cell-based, alamar blue fluorescence, cherrypicked samples (AID 2631); format: functional; conditions: Homo sapiens;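 also: confirmatory dose-response assay in RAS-dependent BJ fibroblasts engineered with TERT, LT and ST, with cytotoxicity read by fluorescence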
# [38] = Luminescence Cell-Based Dose Response HTS to Identify Inhibitors of 5'UTR Stem-Loop Driven Prion Protein mRNA Translation in H4 Neuroglioblastoma Cells. [Related pubchem assays: 1827 (Project Summary), 1813 (Primary HTS)]; format: functional
# [39] = PAX2 cell-based inhibition, dose response, selectivity assay for PAX8 inhibitor project, plate reader, dry powder samples (AID 743048); format: functional;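 also: HEK293 cells carrying a WT1 promoter luciferase reporter driven by expressed Pax2; potency is for inhibition of Pax2 driven reporter signal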
# [40] = cytotoxicity in COV434 cells, dose response, cytotoxicity control for PAX8 inhibitor project, cell-based, plate reader, dry powder, SA7 (AID 743145); format: functional
# Paired box protein Pax-8 = Paired box protein Pax-8 (Homo sapiens, UniProt Q06710); assay: inhibitors of PAX8-driven TPO luciferase reporter, dose response, RMG-I cells, cherry-pick (AID 687027); format: functional, cell-based;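 also: luciferase reporter driven by Pax8 target thyroperoxidase promoter measured by SteadyGlo luminescence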
# Chain of Paired box protein Pax-8 (Q06710 whole entry): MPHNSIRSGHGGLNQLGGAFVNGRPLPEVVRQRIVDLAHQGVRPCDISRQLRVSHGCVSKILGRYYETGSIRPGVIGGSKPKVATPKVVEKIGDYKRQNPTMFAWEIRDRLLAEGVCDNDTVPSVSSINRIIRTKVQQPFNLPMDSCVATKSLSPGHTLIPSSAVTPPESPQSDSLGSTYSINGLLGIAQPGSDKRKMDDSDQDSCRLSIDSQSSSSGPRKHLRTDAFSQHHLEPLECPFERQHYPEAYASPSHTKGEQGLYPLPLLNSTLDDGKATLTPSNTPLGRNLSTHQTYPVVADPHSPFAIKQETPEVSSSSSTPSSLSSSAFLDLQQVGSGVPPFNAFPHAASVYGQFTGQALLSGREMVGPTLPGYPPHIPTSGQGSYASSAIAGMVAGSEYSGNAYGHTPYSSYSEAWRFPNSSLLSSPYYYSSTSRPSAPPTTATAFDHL
# [41] = molecular target: 5-hydroxytryptamine receptor 1A (Homo sapiens, UniProt P08908); format: functional
# Chain of 5-hydroxytryptamine receptor 1A (P08908 whole entry): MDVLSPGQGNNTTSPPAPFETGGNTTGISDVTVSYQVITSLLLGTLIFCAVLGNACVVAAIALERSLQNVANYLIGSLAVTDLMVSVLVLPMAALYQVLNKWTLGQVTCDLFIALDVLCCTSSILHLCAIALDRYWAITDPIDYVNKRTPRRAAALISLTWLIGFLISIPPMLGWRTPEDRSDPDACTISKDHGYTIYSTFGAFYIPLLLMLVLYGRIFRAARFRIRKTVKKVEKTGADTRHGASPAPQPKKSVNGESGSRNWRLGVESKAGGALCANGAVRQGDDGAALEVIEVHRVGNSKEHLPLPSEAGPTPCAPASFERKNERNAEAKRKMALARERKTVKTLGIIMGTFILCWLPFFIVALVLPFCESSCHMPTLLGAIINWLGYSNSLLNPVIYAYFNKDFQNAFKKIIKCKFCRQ
compound,measurement,setting,value
Cc1c(O)cc2c(c1C)O[C@](C)(CCC[C@H](C)CCC[C@H](C)CCCC(C)C)CC2,IC50,[1],> 20 µM (inactive)
same,IC50,[2],> 20 µM (inactive)
same,IC50,[3],> 20 µM (inactive)
same,IC50,[4],> 20 µM (inactive)
same,IC50,[5],> 20 µM (inactive)
same,IC50,[6],> 20 µM (inactive)
same,IC50,[7],> 20 µM (inactive)
same,IC50,[8],> 20 µM (inactive)
O=C(NC(=S)NCCc1ccccc1)c1cccc(Cl)c1,EC50,[9],3.5 µM (active)
O=C(Nc1ccc2c(c1)OCO2)N1C[C@@H]2N[C@H](C1)[C@@H]2c1ccc(C=Cc2ccccc2)cc1,AC50,[10],5.46 µM (active)
same,AC50,[11],11.2 µM (active)
COc1cccc2c1C(CO)N1C(C#N)C3CC(C(=O)O)C(C1C2)N3C (stereo not drawn),EC50,[12],> 55.7 µM (not active)
same,IC50,cells,2.76 µM (active)
same,GI50,P388/ADR,< 38.4 nM (active)
same,IC50,[13],> 80 µM (inactive)
same,GI50,P388,416 nM (active)
same,AC50,[14],20.1 µM (active)
same,IC50,Jurkat,340 nM (active)
same,GI50,SN12K1,243 nM (active)
same,CC50,[15],194 nM (active)
same,CC50,[16],330 nM (active)
same,CC50,[17],153 nM (active)
same,CC50,[18],925 nM (active)
same,EC50,[19],> 55.7 µM (not active)
NC1=C(c2nc3ccccc3s2)C(=O)CN1NC(=O)c1c[nH]c2ccccc12,IC50,[20],> 43.8 µM (inactive)
Cc1cc(C)n(CC(=O)n2c(C)c(C)c3ccccc32)n1,EC50,Transthyretin,> 167 µM (inactive)
CCN(CC)c1ccc2c(cc1=O)[C@@H](NC)CCc1cc(OC)c(OC)c(OC)c1-2,EC50,[21],1.03 µM (active)
same,AC50,[22],1.63 µM (active)
same,AC50,[23],6.61 µM (active)
same,EC50,BJ [24],1.62 µM (active)
same,IC50,[25],1.49 µM (active)
same,EC50,BJ [26],1.36 µM (inconclusive)
same,AC50,[27],7.15 µM (active)
same,AC50,[28],2.89 µM (active)
same,AC50,[29],6.57 µM (active)
same,AC50,[30],5.6 µM (active)
same,AC50,[31],2.73 µM (active)
same,AC50,[32],3.39 µM (active)
same,EC50,[33],350 nM (active)
same,AC50,[34],11.7 µM (active)
same,EC50,BJ [35],1.07 µM (inconclusive)
same,EC50,[36],953 nM (active)
same,EC50,BJ [37],343 nM (active)
same,EC50,[38],684 nM (active)
same,AC50,[39],5.95 µM (active)
same,AC50,[40],3.45 µM (active)
same,AC50,Paired box protein Pax-8,2.9 µM (active)
CCOC(=O)C1=C(C)NC(=O)NC1c1ccc(OCC(=O)Nc2ccccc2)c(OC)c1 (stereo not drawn),EC50,[41],> 50 µM (not active)
